US9060997B2, “Antifolate compounds for the treatment of melanoma” (UNIVERSIDAD DE MURCIA, priority 2007, dated 2015)

Key:
[1] = tested on: Caspase-3; assay: Caspase-3 colorimetric activity assay; format: cell-based, human; settings: SkMel-28, 50 μM, 7 days
Method: Cells were treated for 7 days with 50 μM TMECG. Caspase-3 activity was determined in the absence or the presence of […]. The results are expressed as the mean±SD of three cultures.
Caspase-3 activity in the SkMel-28 cells was measured using the caspase-3 colorimetric activity assay kit (Sigma). Briefly, the cells were washed with cold PBS and lysed with cell lysis buffer included in the kit. The cell lysates were centrifuged (10,000 g for 5 min at 4° C.), and the supernatants were collected. Equal amounts of protein (100 μg), 30 μg of colorimetric caspase-3 substrate (acetyl-Asp-Glu-Val-Asp p-Nitroanilide; Ac-[…]-pNA) and assay buffer were added to each reaction mix, which were then incubated for 4 h at 37° C. Caspase-3 activity was determined by measuring the absorbance at 405 nm. One unit of caspase-3 activity was expressed as 1 pmol of pNA formed per hour, and its specific activity was that unit divided by micrograms of protein. Caspase-3 inhibitor ([…]) was used as negative control.

[2] = tested on: B16 melanoma; assay: Mouse tumor model, B16 melanoma, topical TMECG cream; format: in vivo
Method: Female C57/B16 mice 6-8 weeks old were obtained from the Animal Research Service (University of Murcia, Spain) and were housed in our animal facilities. All animal work was performed in accordance with the government guidelines. The B16 melanoma cell line (ATCC) was culture in RPMI 1640 medium under standard tissue culture conditions. Mice were shaved on the back using a long-hair cutter and 7.5×10^5 B16 melanoma cells resuspended in 25 μl sterile PBS were injected intradermally on the back. Animals with tumors more than 8 mm in diameter on day 8 or nonvisible tumor growth by day 12 were excluded. Groups consisting of 20 mice per group were differently treated starting at day 8 after tumor cell injection. For TMECG treatments this compound was uniformly mixed in a cosmetic base cream (Thae, Murcia, Spain). Topical treatment of TMECG was given every day at a dose of ≈1 mg/cm2 skin area. Control mice (non-TMECG treated) were topically treated with the some amount of cream alone. Tumor growth and body weight were monitored every second day. A postmortem with histological examination of the lung, liver and brain was performed in all animals. Tissues were fixed in 10% formaldehyde, dehydrated and embedded in paraffin wax. Sections (4 μm) were stained with eosin and hematoxylin. Analyses of gluconic acid content in lungs were carried out as described elsewhere (Pradeep and Kuttan, 2002).

[3] = tested on: γ-glutamylcysteine synthetase (GCS) mRNA; assay: GCS mRNA determination in SkMel-28; format: cell-based, human; settings: SkMel-28 treated with TMECG
Method: Histograms compare the estimated relative levels of the mRNA with respect to that of β-actin. Values represent the number of copies of mRNA per each 1×10^6 copies of β-actin.
cDNA samples (1 μL) were used for real-time PCR in a total volume of 20 μL using SYBR Green Reagent (Applied Biosystems) and specific primers on a 7500 Real Time PCR System of Applied Biosystems. The PCR amplification cycles included denaturation 95° C., 15 min; to activate HotStar Taq DNA polymerase and to minimize primer-dimer contribution), and amplification [over 40-50 cycles including denaturation (94° C.; 30 s), annealing (55° C.; 30 s), and extension (72° C.; 1 min)]. All PCR reactions were performed in triplicate and from at least two independent experiments. Non-RT control and negative control samples (without template) were processed in the same manner. The specificity of the amplification was verified by melting curve analysis for all samples, and occasionally by agarosa gel electrophoresis. Amplification of target gene sequences were compared against serial dilutions of know quantities of their purified cDNA fragments, and normalized to the abundance of the house-keeping gene β-actin.

[4] = tested on: MCF7 cells; assay: MTT cell proliferation assay, MCF7; format: cell-based; settings: Homo sapiens, 144 h; MCF7, 6 days of treatment
Method: Four human cancer cells lines (SkMel-28, MCF7, H1264 and Caco-2) were obtained from the American Type Tissue Culture Collection (ATCC) and were maintained in appropriate culture mediums supplemented with 10% fetal calf serum (FCS) and antibiotics, under standard tissue culture conditions (e.g. modified Eagle's medium (MEM) containing 1 mM sodium pyruvate and 10% fetal bovine serum (FES) under 5% CO2/95% air atmosphere.). Cell injury was evaluated by a colorimetric assay for mitochondrial function using the 3-(4,5-dimethylthiazolyl-2)-2,5-diphenyltetrazolium bromide (MTT) cell proliferation assay. For this assay cells were plated in a 96-well plate at a density of 1000 cells/well and grown until they reached 50-60% confluence. Human epidermal melanocytes (HeM) were supplied by Gentaur and were cultured in HAM-F10 medium supplemented with 10% FCS, antibiotics and the human melanocyte growth supplement (Gentaur).

[5] = tested on: B16 melanoma cells; assay: Metastasis model, B16 cells injected into tail vein; format: in vivo, mouse; settings: TMECG 20 mg/Kg/d plus Dipyridamol 10 mg/Kg/d intraperitoneal, 30 days, female mice
Method: B16 melanoma cells were injected into the tail vein, allowing microtumours to develop (1 week), then, the animal were treated for 21 days with […]) plus Dipyridamol (10 mg/Kg/d) by intraperitoneal injection. The animals were sacrifice and lungs and liver analyzed for tumor growth. We have now increased the number of treated and control animals (treated 21 female mice compared with 21 control (untreated) females) and the time of treatment (30 days). […] 31).

[6] = tested on: B16/F10 melanoma cell tumours; assay: Primary tumour model, B16/F10 melanoma in C57/B16 mice; format: in vivo, mouse
Source text: Translational therapy was then designed to probe the efficacy of this combination on mice induced melanoma tumor. Injection of 5×10^5 B16/F10 melanoma cells in the back of C57/B16 mice formed a blackish tumor mass, which in untreated control mice reached to a tumor area of 3.7±0.7 and 9.3±1.1 cm2 in female and male, respectively, after 21 days of cells inoculation.

[7] = treated for 21 days, post-mortem

COc1cc(C(=O)O[C@@H]2Cc3c(O)cc(O)cc3O[C@@H]2c2ccc(O)c(O)c2)cc(OC)c1OC [TMECG, 3-O-(3,4,5-trimethoxybenzoyl)-(−)-epicatechin]
caspase-3 activity [1]: significantly higher caspase-3 activity
tumor growth ([2]; topical, ≈1 mg/cm2 skin area every day): significantly reduced
survival time ([2]; topical, ≈1 mg/cm2 skin area every day, female C57/B16 mice): longer survival time
liver and brain metastasis [2, 7]: no metastasis in these organs was detected
lung metastasis [2, 7]: drastically reduced lung metastasis
GCS mRNA, mean value [3]: 26300 copies per million of copies of β-actin mRNA
IC50 [4]: 80 µM
lung metastasis [5]: reduction on lung metastasis
tumor mass reduction ([6]; females, TMECG 2.5 mg/Kg/d): 27%
effect of single treatments ([6]; male mice): not effective
